From patent US12507703B2, “Methods, devices and compositions for preserving human milk” (The Trustees of Princeton University, priority 2023, dated 2025)
Several values for one entry are separate records, joined by “and”; a condition that tells them apart may be missing. Equal entries are not always repeated.

Each compound was assayed on lipase (assay: Lipase/lipolysis assay (EnzChek Lipase Substrate, quenched BODIPY-fatty acid conjugate) on stored human milk; note: test concentration or dose not given here).

Structure (SMILES) | Lipase (RFU)
CC(C)[C@@H](C)/C=C/[C@@H](C)[C@H]1CC[C@H]2[C@@H]3CC=C4C[C@@H](O)CC[C@]4(C)[C@H]3CC[C@]12C [Brassicasterol] | 931.4963 RFU
COc1cc(-c2oc3cc(O[C@@H]4O[C@H](CO)[C@@H](O)[C@H](O)[C@H]4O)cc(O)c3c(=O)c2O)ccc1O [Brassicin] | 1089.017 RFU
CC(C)[C@H](C)[C@@H](O)[C@H](O)[C@@H](C)[C@H]1CC[C@H]2[C@@H]3COC(=O)[C@H]4C[C@H](O)[C@H](O)C[C@]4(C)[C@H]3CC[C@]12C [Brassinolide] | 945.8414 RFU
O=C1CC(C(=O)O)c2c1oc(=O)c1cc(O)c(O)c(O)c21 (stereo not shown) [Brevifolincarboxylic acid] | 760.1752 RFU
CCN(Cc1cccc(S(=O)(=O)[O-])c1)c1ccc(C(=C2C=CC(=[N+](CC)Cc3cccc(S(=O)(=O)[O-])c3)C=C2)c2ccccc2S(=O)(=O)[O-])cc1.[Na+].[Na+] [Brilliant Blue FCF] | 652.1115 RFU
CCCCOC(=O)c1ccc(O)cc1 [Butylparaben] | 948.3985 RFU
CCCCC1OC(=O)c2ccccc21 (stereo not shown) [Butylphthalide] | 989.7778 RFU
C[C@@]12CCc3occc3[C@H]1CC[C@@]13C[C@@H](CC[C@H]12)[C@@](O)(CO)C3 [Cafestol] | 1003.112 RFU
O=C([O-])[O-].[Ca+2] [Calcium carbonate] | 646.797 RFU
CC1(C)CC[C@]2(C(=O)O)CC[C@]3(C)C(=CC[C@@H]4[C@@]5(C)CC[C@H](O[C@@H]6O[C@H](C(=O)O)[C@@H](O)[C@H](O)[C@H]6O)C(C)(C)[C@@H]5CC[C@]43C)[C@@H]2C1 [Calenduloside E] | 1034.138 RFU
c1ccc2c(-c3nccs3)c[nH]c2c1 [Camalexin] | 1018.047 RFU
C[C@@H]1O[C@@H](OC[C@H]2O[C@@H](Oc3c(-c4ccc(O)cc4)oc4cc(O)cc(O)c4c3=O)[C@H](O[C@@H]3OC[C@@H](O)[C@H](O)[C@H]3O)[C@@H](O)[C@@H]2O)[C@H](O)[C@H](O)[C@H]1O [Camelliaside B] | 927.4235 RFU
CC(C)[C@H](C)CC[C@@H](C)[C@H]1CC[C@H]2[C@@H]3CC=C4C[C@@H](O)CC[C@]4(C)[C@H]3CC[C@]12C [Campesterol] | 912.1206 RFU
CCCCCC(=O)O [Caproic Acid] | 905.3416 RFU
COc1cc(COC(=O)CCCC/C=C/C(C)C)ccc1O [Capsiate] | 1078.823 RFU
NC(=O)OP(=O)(O)O [Carbamyl Phosphate] | 699.376 RFU
Cc1ccc(C(C)C)cc1O [Carvacrol] | 695.2525 RFU and 1199.593 RFU
C=C1CC[C@H]2O[C@]2(C)CC[C@@H]2[C@@H]1CC2(C)C [Caryophyllene oxide] | 891.7497 RFU and 923.1149 RFU
COc1cc(O[C@@H]2O[C@H](CO[C@@H]3O[C@H](CO)[C@@H](O)[C@H](O)[C@H]3O)[C@@H](O)[C@H](O)[C@H]2O)c2c(O)c3c(=O)oc(C)cc3cc2c1 [Cassiaside C] | 979.0974 RFU
COn1cc(CC#N)c2ccccc21 [Caulilexin C] | 998.4752 RFU
CC(=O)O[C@]1(C)CC[C@@]23C[C@@H]1C(C)(C)[C@@H]2CC[C@H]3C [Cedryl acetate] | 1088.309 RFU
O=C1C[C@@H](c2ccc(O[C@@H]3O[C@H](CO)[C@@H](O)[C@H](O)[C@H]3O)cc2)Oc2cc(O)cc(O)c21 [Choerospondin] | 1121.626 RFU

Structure (SMILES) | Lipase (RFU)
CC(C)CCC[C@@H](C)[C@H]1CC[C@H]2[C@@H]3CCC4=CC(=O)CC[C@]4(C)[C@H]3CC[C@]12C [Cholestenone] | 787.5717 RFU
CCCCCCCCCCCCCCCCCCCCCC(=O)O[C@H]1CC[C@@]2(C)C(=CC[C@H]3[C@@H]4CC[C@H]([C@H](C)CCCC(C)C)[C@@]4(C)CC[C@@H]32)C1 [Cholesteryl behenate] | 935.1979 RFU
CCCCC/C=C\C/C=C\CCCCCCCC(=O)O[C@H]1CC[C@@]2(C)C(=CC[C@H]3[C@@H]4CC[C@H]([C@H](C)CCCC(C)C)[C@@]4(C)CC[C@@H]32)C1 [Cholesteryl linoleate] | 922.3562 RFU
CCCCCCCC/C=C\CCCCCCCC(=O)O[C@H]1CC[C@@]2(C)C(=CC[C@H]3[C@@H]4CC[C@H]([C@H](C)CCCC(C)C)[C@@]4(C)CC[C@@H]32)C1 [Cholesteryl oleate] | 988.5488 RFU
C[C@H](CCC(=O)O)[C@H]1CC[C@H]2[C@@H]3[C@H](O)C[C@@H]4C[C@H](O)CC[C@]4(C)[C@H]3C[C@H](O)[C@]12C [Cholic acid (sodium)] | 828.0633 RFU and 816.2579 RFU
C[C@H](CCC(=O)O)[C@H]1CC[C@H]2[C@@H]3[C@H](O)C[C@@H]4C[C@H](O)CC[C@]4(C)[C@H]3C[C@H](O)[C@]12C [Cholic acid] | 761.6522 RFU and 886.7213 RFU
C[N+](C)(C)CCO.O=C([O-])C(O)C(O)C(=O)O (stereo not shown) [Choline (bitartrate)] | 1263.191 RFU and 1046.984 RFU
C=C(O[C@@H]1C=C(C(=O)O)C=C[C@H]1O)C(=O)O [Chorismic Acid] | 935.6375 RFU
Cc1cc(O)c2c(c1)C(=O)c1cccc(O[C@@H]3O[C@H](CO)[C@@H](O)[C@H](O)[C@H]3O)c1C2=O [Chrysophanol 8-O-glucoside] | 988.4419 RFU
COc1cc(-c2oc3cc(OC)c(OC)c(O)c3c(=O)c2OC)ccc1O [Chrysosplenetin] | 1129.025 RFU
O=c1ccc2cc(O)c(O[C@@H]3O[C@H](CO)[C@@H](O)[C@H](O)[C@H]3O)cc2o1 [Cichoriin] | 714.076 RFU
Oc1cc(O)c2c(c1)O[C@@]1(c3ccc(O)c(O)c3)Oc3cc(O)c4c(c3[C@@H]2[C@H]1O)O[C@H](c1ccc(O)c(O)c1)[C@H](O)[C@H]4c1c(O)cc(O)c2c1O[C@H](c1ccc(O)c(O)c1)[C@H](O)C2 [Cinnamtannin B-1] | 1061.374 RFU
C[N+](C)(C)CCOP(=O)([O-])OP(=O)([O-])OC[C@H]1O[C@@H](n2ccc(N)nc2=O)[C@H](O)[C@@H]1O.[Na+] [Citicoline (sodium)] | 965.9573 RFU
Nc1ncnc(N[C@@H]2O[C@H](CO)[C@@H](O)[C@H]2O)c1[N+](=O)[O-] [Clitocine] | 1144.133 RFU
COC1=C(OC)C(=O)C(C/C=C(\C)CC/C=C(\C)CC/C=C(\C)CC/C=C(\C)CC/C=C(\C)CC/C=C(\C)CC/C=C(\C)CC/C=C(\C)CCC=C(C)C)=C(C)C1=O [Coenzyme Q9] | 1106.833 RFU
CC(O)CN (stereo not shown) [Compound 1-Aminopropan-2-ol, 1-Aminopropan-2-ol] | 1021.874 RFU and 806.2549 RFU
OC[C@H]1NC[C@H](O)[C@@H](O)[C@@H]1O [Compound 1-Deoxynojirimycin] | 1029.468 RFU
CCCCCCCCCCCCCCCCCO [Compound 1-Heptadecanol, 1-Heptadecanol] | 803.2986 RFU
CCCCCCO [Compound 1-Hexanol] | 1054.453 RFU and 1051.532 RFU
OC[C@H]1O[C@@](CO)(OC[C@@]2(O[C@H]3O[C@H](CO)[C@@H](O)[C@H](O)[C@H]3O)O[C@H](CO)[C@@H](O)[C@@H]2O)[C@@H](O)[C@@H]1O [Compound 1-Kestose] | 1115.168 RFU
CCCCCCCCO [Compound 1-Octanol] | 882.5398 RFU
O=c1[nH]c2ccccc2o1 [Compound 2-Benzoxazolinone, 2-Benzoxazolinone] | 985.9488 RFU

Structure (SMILES) | Lipase (RFU)
C[C@]12CC[C@@H]3c4cc(O)c(O)cc4CC[C@H]3[C@@H]1CC[C@@H]2O [Compound 2-Hydroxyestradiol] | 1214.209 RFU
COc1cc2c(cc1O)CC[C@@H]1[C@@H]2CC[C@]2(C)[C@@H](O)CC[C@@H]12 [Compound 2-Methoxyestradiol] | 884.0231 RFU
COc1cc2c(cc1O)CC[C@@H]1[C@@H]2CC[C@]2(C)C(=O)CC[C@@H]12 [Compound 2-Methoxyestrone] | 970.0321 RFU
Cc1nc2ccccc2o1 [Compound 2-Methylbenzoxazole, 2-Methylbenzoxazole] | 887.776 RFU
COc1nccc(N)n1 [Compound 2-O-Methylcytosine] | 1109.623 RFU
NC(=O)Cc1ccccc1 [Compound 2-Phenylacetamide, 2-Phenylacetamide] | 955.8815 RFU
CCCCCCCCCC(C)=O [Compound 2-Undecanone, 2-Undecanone] | 1119.854 RFU
N[C@@H](Cc1ccc(O)c(Cl)c1)C(=O)O [Compound 3-Chloro-L-tyrosine, 3-Chloro-L-tyrosine] | 1117.619 RFU
Nc1c(O)cccc1C(=O)CC(N)C(=O)O (stereo not shown) [Compound 3-Hydroxykynurenine] | 1303.264 RFU
COc1c(O)cc2oc3cc4c(c(O)c3c(=O)c2c1CC=C(C)C)CCC(C)(C)O4 [Compound 3-Isomangostin] | 1135.455 RFU
COc1cc(CCN)ccc1O [Compound 3-Methoxytyramine, 3-Methoxytyramine] | 821.2607 RFU
COc1c(-c2ccccc2)oc2cc(O)cc(O)c2c1=O [Compound 3-O-Methylgalangin] | 819.4334 RFU
O=c1cc(O)c2ccccc2o1 [Compound 4-Hydroxycoumarin, 4-Hydroxycoumarin] | 929.4704 RFU
COc1ccc(C(=O)/C=C/c2ccc(O)cc2)c(O)c1CC=C(C)C [Compound 4-Hydroxyderricin] | 842.4877 RFU
C[C@]12CC[C@@H]3c4ccc(O)c(O)c4CC[C@H]3[C@@H]1CCC2=O [Compound 4-Hydroxyestrone] | 1068.255 RFU
CCCCCC(O)/C=C/C=O (stereo not shown) [Compound 4-Hydroxynonenal, 4-Hydroxynonenal] | 827.4103 RFU
COc1ccc(C)cc1 [Compound 4-Methylanisole, 4-Methylanisole] | 864.3612 RFU and 916.5396 RFU
CC(C)(C)CC(C)(C)c1ccc(O)cc1 [Compound 4-tert-Octylphenol, 4-tert-Octylphenol] | 868.4892 RFU
COc1ccc(-c2cc(=O)c3c(O)c(OC)c(OC)c(OC)c3o2)cc1OC [Compound 5-O-Demethylnobiletin] | 860.071 RFU
C[C@H](O)[C@H](O)c1cnc2nc(N)[nH]c(=O)c2n1 [Compound 6-Biopterin] | 1286.983 RFU
